The values that follow come from publication PMC11874377, “Fungal-derived methyldeoxaphomins target Plasmodium falciparum segregation through the inhibition of PfActin1” (Proceedings of the National Academy of Sciences of the …, 2025).

Assay [1] concerns P. falciparum. Kind of assay: Isobologram assay with NPDG-F. Format: cell-based, Plasmodium falciparum. The method, then:
To further explore the relationship of NPDG-F with established actin-interfering drugs, an isobologram study was performed (Fig. 3). NPDG-F was added in combination with four inhibtors known to interfere with actin polymerization including a formin inhibitor SMIFH2, cofilin inhibitor SZ-3, F-actin targeting compound jasplakinolide, and G-actin targeting latrunculin B. The frontline antimalarial DHA was also added as a nonactin inhibitor control. After dose–response curves were generated (Fig. 3A), the fractional inhibitory concentrations (FICs) of NPDG-F and the combination drug were calculated and graphed. […]
Plasmodium blood stage culture
Parasite culture in the Chakrabarti lab was maintained following a modified Trager and Jensen protocol (Trager & Jensen, 1976) as previously described (Lee et al., 2021) with RPMI 1640 with 25 mM HEPES pH 7.4, 26 mM NaHCO3, 15 mg/L hypoxanthine, 0.5% Albumax II, 25 mg/L gentamycin, and 2% dextrose. Parasites were grown with human A+ erythrocytes obtained from Florida OneBlood. Cultures were kept in an incubator with 5% […]
Antiplasmodial activity screening
SYBR Green I-based fluorescence assay was performed as previously described (Lee et al., 2021) following protocols by Smilkstein et. al. (Smilkstein et al., 2004). Asynchronous Dd2 parasites were added to serially diluted compounds and incubated for 72 h at 5% CO2, 95% air at 37°C. Plates were then frozen at -80°C, thawed, and incubated for one hour with 1x SYBR Green I in a lysis buffer (20 mM Tris-HCL, 0.08% saponin, 5 mM EDTA, and 0.8% Triton X-100). Fluorescence was then read on a Synergy Neo2 multimode reader (BioTek Winsooki, VT). Compound dose response curves and EC50 determination was performed using CDD Vault normalized to 10 µM CQ and vehicle […]
For isobologram assessment, inhibitors were tested using a 1:2 dilution with starting concentrations selected as 40 nM for DHA, 100 µM Latrunculin B, 100 µM SMIFH2, and 40 nM for jasplakinolide. These concentrations were selected to provide 2-3 points above […]
EC50s. The test inhibitor methyldeoxaphomin NPDG-F was then added in combination with the aforementioned inhibitors at concentrations ranging from 10 to 0.3125 µM. Dose-response curves were then generated for the available conditions where EC50s could be determined. The fractional inhibitor concentration of both compounds was then determined as described (Fivelman et al., 2004) for the available points and graphed on a scale of 0-1 also using Graphpad Prism version 10. […]

For assay [2], the system named is in vitro evolved NPDG-F-resistant Dd2-Pol δ clones (PfActin1 mutations). In words: Resistant parasite phenotyping and cross resistance, SYBR green I EC50 assay, NPDG-F-resistant clones. Format: cell-based, Plasmodium falciparum. The conditions noted are these: for EC50: read-out: EC50 (mean ± SEM). The protocol: (§1) Cloning by limiting dilution was then performed to isolate individual lines from the bulk population. Due to the multiple mutations identified in the first biological replicate, we isolated four clones from this bulk culture as compared to two clones each from the second and third replicates. These clones were phenotyped via a SYBR green I-based dose–response assay (Table 2 and Fig. 2B). […] The DNA of these clones was then extracted and subjected to whole-genome sequencing.
To investigate whether NPDG-F has the same mode of action as cytochalasin D, we tested our clones for sensitivity to both cytochalasin D and jasplakinolide.
(§2) Resistant parasite phenotyping and cross resistance measurement
The EC50 assay was performed at 1% parasitemia, 1% hematocrit with SYBR green I in 96-well plates. The highest final concentration of the methyldeoxaphomin NPDG-F was set at 100 μM. Briefly, the compound was subjected to a 3-fold serial dilution with ten dilution points. Three technical replicates were set up at each dilution point. The Dd2-Pol δ parent line and the resistant parasites at 2% hematocrit and 1% parasitemia were added to the drug media at 1:1 ratio. The plate was incubated at 37°C for 72 hours in a chamber filled with a hypoxic gas mixture (3% oxygen, 5% carbon dioxide, and 92% nitrogen). After incubation, the cells were lysis with lysis buffer (20 mM Tris-HCL, 0.08% saponin, 5 mM EDTA, and 0.8% Triton X-100) containing SYBR green I (10,000X, Thermo Fisher, cat # S7563) overnight. Fluorescence was measured at 485nm excitation and 530nm emission using a PHERAstar FSX plate reader (BMG Labtech, Germany). Dose response curves were graphed with Prism 9 Version 9.5.1. […]

Assay [3] concerns Dd2-Pol δ parent line. Kind of assay: Resistant parasite phenotyping and cross resistance, SYBR green I EC50 assay, parent line. In kind it is cell-based, Plasmodium falciparum. The conditions noted are these: strain Dd2-Pol δ -parent, read-out: EC50 (mean ± SEM). The method, then: as §1, §2
The EC50 assay was performed at 1% parasitemia, 1% hematocrit with SYBR green I in 96-well plates. The highest final concentration of the methyldeoxaphomin NPDG-F was set at 100 μM. Briefly, the compound was subjected to a 3-fold serial dilution with ten dilution points. Three technical replicates were set up at each dilution point. The Dd2-Pol δ parent line and the resistant parasites at 2% hematocrit and 1% parasitemia were added to the drug media at 1:1 ratio. The plate was incubated at 37°C for 72 hours in a chamber filled with a hypoxic gas mixture (3% oxygen, 5% carbon dioxide, and 92% nitrogen). After incubation, the cells were lysis with lysis buffer (20 mM Tris-HCL, 0.08% saponin, 5 mM EDTA, and 0.8% Triton X-100) containing SYBR green I (10,000X, Thermo Fisher, cat # S7563) overnight. Fluorescence was measured at 485nm excitation and 530nm emission using a PHERAstar FSX plate reader (BMG Labtech, Germany). Dose response curves were graphed with Prism 9 Version 9.5.1.
3D structural analysis of the mutations and docking studies
The crystal structure of PfActin1 with accession number 6TU4 (resolution 2.60 Ang) (Vahokoski et al., 2022) was obtained from the Protein Data Bank (PDB). This structure of PfActin1 contains ligands Jasplakinolide and ADP with a coordinating magnesium ion.
Only chain A was used for the docking experiment. […] Schrodinger maestro software (Schrödinger, LLC) was used to build NPDG-F with the proper stereochemistry using the x-ray structure determined for analog NPDG-A (vide supra). […]

For assay [4], the target named is barbed end of F-actin. The conditions noted are these: read-out: binding affinity Kd; cited from earlier work.

Molecules are shown by their SMILES. Like-named read-outs stand apart in the source and are kept apart here.

For the compound `C/C1=C\[C@H](C)C[C@H](C)OC(=O)C[C@H](c2ccc(O)cc2)NC(=O)[C@@H](Cc2c(Br)[nH]c3ccccc23)N(C)C(=O)[C@H](C)NC(=O)[C@@H](C)C1` [Jasplakinolide, jasplakinolide], the “fractional inhibitory concentration (FIC)” value in assay [1] (combination with NPDG-F) is recorded as “highest FIC values overall”. In assay [1] (single compounds, dose–response, Fig. 3A, read-out: Mean IC50 ± SEM), the IC50 (as a rule, the concentration at which inhibition is half-maximal) worked out at 58 ± 17 nM. Moreover, the EC50 (usually the concentration giving half of the maximal effect) stood at 25.2 ± 0.4 nM in assay [2] (clone 1-C7, A171S (8%), A171V (92%), I290L); 27.6 ± 4 nM in assay [2] (clone 1-D6, A171S (3%), A171V (97%), I290L); 25.9 ± 0.8 nM in assay [2] (clone 1-D7, A171S (22%), A171V (78%), I290L); 30.7 ± 3.2 nM in assay [2] (clone 1-F3, A171S (4%), A171V (96%), I290L); 22.4 nM in assay [2] (clone 2-C4, A136S); 25.1 ± 2.9 nM in assay [2] (clone 2-F5, A136S). In addition, the EC50 in assay [2] (clone 3-C3, A136S) came out at 24 nM; in assay [2] (clone 3-C5, A136S), 25.4 ± 2.1 nM; in assay [3], 25.1 ± 1.4 nM. Moreover, the Fold change in assay [2] (clone 1-C7 vs Dd2-Pol δ parent) was 1.0; in assay [2] (clone 1-D6 vs Dd2-Pol δ parent) it was 1.1; in assay [2] (clone 1-D7 vs Dd2-Pol δ parent), 1.0; in assay [2] (clone 1-F3 vs Dd2-Pol δ parent), 1.2; in assay [2] (clone 2-C4 vs Dd2-Pol δ parent), 0.9; in assay [2] (clone 2-F5 vs Dd2-Pol δ parent), 1.0. The Fold change in assay [2] (clone 3-C3 vs Dd2-Pol δ parent) and in assay [2] (clone 3-C5 vs Dd2-Pol δ parent) was 1.0 in each case.
Turning to `C=C1[C@@H](C)[C@H]2[C@H](Cc3ccccc3)NC(=O)[C@]23[C@H](OC(C)=O)/C=C/[C@@](C)(O)C(=O)[C@@H](C)C/C=C/[C@H]3[C@@H]1O` [Cytochalasin D, cytochalasin D], the “cross-resistance of NPDG-F-resistant clones” value in assay [2] was “cross-resistant”. Further, the “average EC50 shift, clones from flasks 2 and 3” value in assay [2] (A136S) is reported as 3.9 fold. Further, the “average EC50 shift, clones from flask 1” value in assay [2] (A171V/S and I290L clones) amounted to 20 fold. The 50% effective concentration (EC50) is 302 ± 8.8 nM in assay [2] (Plasmodium falciparum, DD2, clone 1-C7, A171S (8%), A171V (92%), I290L); 317 ± 9.2 nM in assay [2] (Plasmodium falciparum, DD2, clone 1-D6, A171S (3%), A171V (97%), I290L); 402 ± 7 nM in assay [2] (Plasmodium falciparum, DD2, clone 1-D7, A171S (22%), A171V (78%), I290L); 367 ± 7.8 nM in assay [2] (Plasmodium falciparum, DD2, clone 1-F3, A171S (4%), A171V (96%), I290L); 60.8 ± 0.8 nM in assay [2] (Plasmodium falciparum, DD2, clone 2-C4, A136S); 71.3 ± 1.7 nM in assay [2] (Plasmodium falciparum, DD2, clone 2-F5, A136S). Besides, the EC50 in assay [2] (Plasmodium falciparum, DD2, clone 3-C3, A136S) turned out to be 66.4 ± 0.2 nM; in assay [2] (Plasmodium falciparum, DD2, clone 3-C5, A136S), 73.2 ± 0.7 nM; in assay [3] (Plasmodium falciparum), 17.3 ± 0.5 nM. The Fold change is 17.5 in assay [2] (clone 1-C7 vs Dd2-Pol δ parent); 18.3 in assay [2] (clone 1-D6 vs Dd2-Pol δ parent); 23.3 in assay [2] (clone 1-D7 vs Dd2-Pol δ parent); 21.2 in assay [2] (clone 1-F3 vs Dd2-Pol δ parent); 3.5 in assay [2] (clone 2-C4 vs Dd2-Pol δ parent); 4.1 in assay [2] (clone 2-F5 vs Dd2-Pol δ parent). The Fold change in assay [2] (clone 3-C3 vs Dd2-Pol δ parent) was 3.8; in assay [2] (clone 3-C5 vs Dd2-Pol δ parent), 4.2. Also, the Kd (commonly the concentration at which binding is half-saturated) in assay [4] is around 2 nM.
